The text below walks through data of article PMC4488150, “Structure-Based Optimization and Biological Evaluation of Pancreatic Lipase Inhibitors as Novel Potential Antiobesity Agents” (Natural Products and Bioprospecting, 2015).

“Also recorded” adds a separate entry of the source.

The target in data set [1] is T1, Porcine pancreatic lipase (Sus scrofa, UniProt P00591).
T1 sequence (P00591 1-450): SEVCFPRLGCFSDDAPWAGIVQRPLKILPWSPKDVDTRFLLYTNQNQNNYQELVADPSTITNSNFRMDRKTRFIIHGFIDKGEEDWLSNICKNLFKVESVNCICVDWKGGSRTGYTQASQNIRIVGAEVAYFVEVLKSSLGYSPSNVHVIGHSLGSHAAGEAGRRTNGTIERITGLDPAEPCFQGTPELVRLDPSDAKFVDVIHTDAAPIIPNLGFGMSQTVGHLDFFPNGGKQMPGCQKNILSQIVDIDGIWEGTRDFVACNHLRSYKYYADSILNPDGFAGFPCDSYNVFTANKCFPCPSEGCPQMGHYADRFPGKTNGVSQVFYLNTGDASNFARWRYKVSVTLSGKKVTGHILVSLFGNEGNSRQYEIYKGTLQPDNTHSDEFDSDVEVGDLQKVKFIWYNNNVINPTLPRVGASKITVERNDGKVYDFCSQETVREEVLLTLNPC
Kind of data set: In vitro pancreatic lipase inhibitory activity (p-nitrophenyl butyrate hydrolysis). The conditions noted are these: for IC50: read-out: IC50 against pancreatic lipase; for pancreatic lipase inhibitory activity compared with compound A1: compared with compound A1 (best inhibitor of the first series). The format is biochemical. How it is done: Compounds A1–A54 were then evaluated for their bioactivity to inhibit pancreatic lipase. Each test was performed in triplicate, and the IC50 values were calculated based on the amount of inhibitor required to produce 50 % inhibition compared with the DMSO vehicle control.
Porcine pancreatic lipase was used to evaluate the inhibitory activity of the monascus pigment derivatives. p-Nitrophenyl butyrate ([…]) was used as the substrate. First, an enzyme-buffer solution was prepared by adding 30 μL of lipase solution (in 10 mM morpholinepropanesulfonic acid (MOPS) and 1 mM EDTA, pH 6.8) to 850 μL of Tris buffer (100 mM Tris–HCl and 5 mM CaCl2, pH 7.0). Pigment solutions were prepared by dissolving each pigment in a mixture (1:1) of ethanol and distilled water. Subsequently, 100 μL of the pigment solution was mixed with 880 μL of the enzyme-buffer solution. Following incubation of the enzyme-pigment mixture for 15 min at 37 °C, 20 μL of the substrate solution (10 mM p-NPB in dimethyl formamide) was added. Enzymatic reactions were conducted for 15 min at 37 °C. The hydrolysis of p-NPB to p-nitrophenol was monitored at 400 nm using a spectrophotometer. One unit of the enzyme was defined as the amount required to liberate 1 μmol of p-nitrophenol under standard assay conditions.

In data set [2] the test system is HFD-induced C57BL/6 J obese mice. Briefly: High-fat diet-induced obese mice (diet-induced obesity). The conditions noted are these: up to 400 mg/kg, data not shown. The format is in vivo.
Data set [3] has the same test system. The data set is described as above. The class given is in vivo. The settings on record: for cholesterol (CHO) level / triglyceride (TG) level: blood after final dose. The procedure: Male C57BL/6 J mice were obtained from Beijing HFK Bioscience Co., Ltd. (Certificate No. SCXK 2014-0004), housed in a temperature- and humidity-controlled room with a 12-hour light/dark cycle, and allowed free access to solid food and tap water for one week prior to the experiments. All of the procedures were performed in accordance with the Institute Ethical Committee for Experimental Animal Use of the Yunnan Province and the Kunming Institute of Botany.
The kits used to determine the triglyceride (TG) and cholesterol (CHO) levels were obtained from the Zhongsheng Beikong Bioengineering Institute.
Three-week-old C57BL/6 J male mice were fed a normal diet for 1 week for acclimatization. Randomly selected mice were fed a normal diet or a 45 % fat diet. After 4 months, the body weights of the mice in the obese group were 20 % higher than those in the control group. These obese mice were randomly divided into the following three groups: the model (45 % fat diet), orlistat (45 % fat diet + orlistat) and Compound groups (45 % fat diet + compound C1). The drugs (50 mg/kg orlistat or 100 mg/kg compound C1) were intragastrically administered for 1 month. During this period, the mice were weighed once every 3 days. Following administration of the final dose, blood samples were collected via the orbital vein after ethyl ether exposure, and epididymal fat was isolated. TG and CHO levels were measured using kits. The ratio of epididymal fat to body weight represents the amount of white adipose tissue (WAT) of each mouse (normalized to the body weight).
Student’s t test was used for comparisons between groups, as indicated in Fig. 2. #p < 0.05, ## or **p < 0.01.

Setting [4] is: compound C1 100 mg/kg, 100 mg/kg.

For orientation: IC50 means the midpoint of a concentration-inhibition curve. For `CC(C)=CC[C@@]12C=C(COC(=O)CCCCCc3ccccc3)C[C@@H]1OC2=O` [Compound A1, ((1R,5S)-1-(3-methylbut-2-en-1-yl)-7-oxo-6-oxabicyclo[3.2.0]hept-2-en-3-yl)methyl-6-phenylhexanoate], the half-inhibitory concentration (IC50) in data set [1] was 83 nM.
Same read-out and setting: the same measure for `CCCCCC[C@@H](OC(=O)[C@](OC)(c1ccccc1)C(F)(F)F)C1=C[C@@]2(CC=C(C)C)C(=O)O[C@H]2C1` [Compound B1, (R)-(R)-1-((1R,5S)-1-(3-methylbut-2-en-1-yl)-7-oxo-6-oxabicyclo[3.2.0]hept-2-en-3-yl)heptyl-3,3,3-trifluoro-2-methoxy-2-phenylpropanoate]: 30 nM.
On to `CCCCCCCCN(CCCCCCC)C(=O)C1=C[C@@]2(CC=C(C)C)C(=O)O[C@H]2C1` [Compound C1, (1R,5S)-N-heptyl-1-(3-methylbut-2-en-1-yl)-N-octyl-7-oxo-6-oxabicyclo[3.2.0]hept-2-ene-3-carboxamide], for which, in data set [1], the IC50 was found to be 14 nM. The “pancreatic lipase inhibitory activity, fold higher than that of vibralactone” value in data set [1] (relative to vibralactone) was “more than 3000 fold”. The “toxicity or adverse behavioral effects” value in data set [2] is “without toxicity or adverse behavioral effects”. The “in vivo activity compared with orlistat” value in data set [3] (C1 100 mg/kg vs orlistat 50 mg/kg) is “lower activity than that of orlistat”. Also, the body weight result in data set [3] (compound C1 100 mg/kg, 33 days, intragastric, vs HFD model group, 100 mg/kg) is recorded as “gradually decreased; also recorded: weight loss; also recorded: significantly low; also recorded: significantly lower”. The HFD-induced obesity entry in data set [3] (compound C1 100 mg/kg, 33 days, intragastric, 100 mg/kg) is listed as “significantly decreased”. In data set [3] (setting [4]), the “cholesterol (CHO) level” value is given as “significantly decreased” and the “triglyceride (TG) level” value was “significantly decreased; also recorded: significantly reduced”. Further, the “fat weight (epididymal white adipose tissue, normalized to body weight)” value in data set [3] (compound C1 100 mg/kg, one month, 100 mg/kg) is “gradually decreased; also recorded: significantly decreased”.
As to `CCCCCCCCN(CCCCCCCC)C(=O)C1=C[C@@]2(CC=C(C)C)C(=O)O[C@H]2C1` [Compound C2, (1R,5S)-1-(3-methylbut-2-en-1-yl)-N,N-dioctyl-7-oxo-6-oxabicyclo[3.2.0]hept-2-ene-3-carboxamide], the “pancreatic lipase inhibitory activity compared with compound A1” value in data set [1] was “higher inhibitory activities than compound A1”.
In the case of `CCCCCCCN(CCCCCCC)C(=O)C1=C[C@@]2(CC=C(C)C)C(=O)O[C@H]2C1` [Compound C3, (1R,5S)-N,N-diheptyl-1-(3-methylbut-2-en-1-yl)-7-oxo-6-oxabicyclo[3.2.0]hept-2-ene-3-carboxamide], the “pancreatic lipase inhibitory activity compared with compound A1” value in data set [1] is recorded as “higher inhibitory activities than compound A1”.
As for `CCCCCCCCCCC[C@@H](C[C@@H]1OC(=O)[C@H]1CCCCCC)OC(=O)[C@H](CC(C)C)NC=O` [orlistat, reference compound], in data set [3] (orlistat 50 mg/kg), the “cholesterol (CHO) level” value is listed as “significantly decreased” and the “triglyceride (TG) level” value is “significantly decreased”. In data set [3] (orlistat 50 mg/kg, one month), the “fat weight (epididymal white adipose tissue, normalized to body weight)” value was “gradually decreased; also recorded: significantly decreased”. The body weight entry in data set [3] (orlistat 50 mg/kg, one month, intragastric) was “gradually decreased”.
Turning to `CC(C)=CC[C@@]12C=C(CO)C[C@@H]1OC2=O` [vibralactone, reference compound], the concentration for half-maximal inhibition (IC50) in data set [1] stood at 47300 nM.
